Measurements reported in article PMC12751141, “Disrupting α-Synuclein–ClpP interaction restores mitochondrial function and attenuates neuropathology in Parkinson’s disease models” (Molecular Neurodegeneration, 2025).

How the values were obtained:
ClpP (HEK293T cells) = experiment: ClpP protein level, western blot, HEK293T cells; assay type: cell-based; conditions: WT or A53T αSyn overexpression; 30 min pretreatment; n = 4–5 (CS1: n = 4)
[1] = test system: αSyn-PFF-inoculated primary cortical neurons; experiment: Mitochondrial function (Mito-SOX, TMRM, ATP) in αSyn-PFF-inoculated primary cortical neurons; assay type: cell-based, mouse; conditions: 1 µM daily
Method: Primary cortical neurons were isolated from normal E18 mouse cortex (sex undetermined) and cultured using complete culturing kit (cat#: KTC57ECX, TransnetYX Tissue). Briefly, 100,000 cells were seeded on poly-D-lysine coated glass coverslips (PDL15mm, TransnetYX Tissue) and cultured in NbActiv1 medium (NB1, TransnetYX Tissue). Neurons were treated with sonicated human α-Syn-PFF (SPR-322, StressMarq Biosciences) starting on post-seeding Day 5 till Day 14. Starting from post-seeding Day 9, TAT or CS2 peptide was added daily at 1µM. Neurons were fixed on Day 14 and subjected for experiments.
Cells cultured on coverslips or 24-well plates were washed with DPBS and then incubated with 5 µM Mito-SOX™ Red (Invitrogen, M36008), a mitochondrial superoxide indicator, for 10 min at 37 °C. For cells cultured on coverslips, the images were visualized by microscope, and quantification of images was then carried out using NIH ImageJ software. At least 100 cells per group were counted in the analysis.
Cells cultured on coverslips or 24-well plates were washed with DPBS and then incubated with 0.25 µM Tetramethylrhodamine, methyl ester (TMRM) (Invitrogen, T668), for 20 min at 37 °C. For cells cultured on coverslips, the images were visualized by microscope, and quantification of images was then carried out using NIH Fiji ImageJ software. At least 100 cells per group were counted in the analysis.
Cells were seeded in 24-well plates, followed by the indicated treatment. The ATP level in each well was determined using the ATP assay kit according to the manufacturer’s procedures (Cayman Chemical, 700410).

ClpP–αSyn interaction = experiment: ClpP–αSyn proximity ligation assay in iPSC-derived neurons; assay type: cell-based, human; conditions: A53T-αSyn neurons; 1 µM, five days; n = 20 images per group
Source text: PD iPS cells lines (αSyn A53T, NN0004337, donor) and its isogenic corrected control line (NN0004344) were obtained from RUCDR Infinite Biologics. The iPS cells were differentiated into dopaminergic neuron-enriched neuronal culture with the protocol described previously. Briefly, iPS cell colonies were disassociated with accutase (Invitrogen), plated onto 6-well plates pre-coated with 2.5% Matrigel (BD Biosciences) and allowed to reach 80% confluence in mTeSR medium (Stem Cell Technology). For the first 10 days, cells were treated with SB431542 (10 µM; Tocris Bioscience) and Noggin (100 ng/ml) in Neural Media (NM) with FGF2 ([…]) and EGF ([…]). NM media contained: Neurobasal and DMEM/F12 (1:1), B-27 Supplement Minus Vitamin A (50×, Invitrogen), N2 Supplement (100X, Invitrogen), GlutaMAX (Invitrogen, 100×), 100 units/ml penicillin and 100 µg/ml streptomycin (Fisher); for the next 4 days, cells were treated with human recombinant Sonic hedgehog (SHH, 200 ng/ml) in neuronal differentiation medium. Neuronal differentiation medium contained Neurobasal and DMEM/F12 (1:3), B27, N2, GlutaMax and PS. […]
Proximity ligation assay (PLA) was performed using the Duolink® In Situ Starter Kit with Detection Reagents Green (mouse/rabbit; DUO92101, DUO92014). […] PLA puncta were detected as distinct fluorescent spots and imaged by confocal microscopy (Fluoview FV3000; Olympus). […]

In the case of CC(C)[C@H](NC(=O)CNC(=O)CNC(=O)CCCCCNC(=O)[C@H](CCCNC(=N)N)NC(=O)[C@H](CCCNC(=N)N)NC(=O)[C@H](CCCNC(=N)N)NC(=O)[C@H](CCC(N)=O)NC(=O)[C@H](CCCNC(=N)N)NC(=O)[C@H](CCCNC(=N)N)NC(=O)[C@H](CCCCN)NC(=O)[C@H](CCCCN)NC(=O)[C@H](CCCNC(=N)N)NC(=O)CNC(=O)[C@@H](N)Cc1ccc(O)cc1)C(=O)N[C@H](C(=O)N[C@H](C(=O)N[C@@H](C)C(=O)O)[C@@H](C)O)C(C)C [CS2, TAT-C6-GGVVTA], the “ClpP protein level, HEK293T” value (ClpP (HEK293T cells)) is reported as “significantly restored ClpP protein levels”, the “ATP content, PFF neurons” value ([1]; n = 4) is reported as “rescued mitochondrial membrane potential and ATP content” and the “mitochondrial ROS, PFF neurons” value ([1]; Mito-SOX, n = 90-100 neurons per group) is reported as “reduced mitochondrial ROS”. The “mitochondrial membrane potential, PFF neurons” value ([1]; TMRM, n = 90-100 neurons per group) was “rescued mitochondrial membrane potential” and the “ClpP–αSyn interaction by PLA” value (ClpP–αSyn interaction) was “markedly reduced the ClpP–αSyn interaction”.
